Measured values: patent US11401255B2, “Small molecule activators of Parkin enzyme function” (Mayo Foundation for Medical Education and Research, priority 2016, dated 2022)
“Also recorded” adds a separate entry of the source.

Assays:
HeLa EGFP-Parkin cells = test: Co-recruitment of autophagy receptors to mitochondria (immunofluorescence); format: cell-based, human
Procedure: Cells were grown on poly-D-lysine coated glass coverslips. After treatments, cells were fixed in 4% paraformaldehyde and permeabilized using 1% Triton X-100, for each 10 min. Cells were blocked in 10% goat serum. Primary and secondary antibodies were diluted in 1% BSA/PBS and each incubated for 1 h at RT. Primary antibodies used: DNA (mouse, 1:250, Progen, AC-30-10), NBR1 (mouse, 1:100, Abnova H00004077-M01), NDP52 (rabbit, 1:400, Proteintech, 12229-1-AP), OPTN (mouse, 1:200, Santa Cruz, sc-166576), p62 (mouse, 1:400, BD Biosciences, 610832), pSer65-Ub (rabbit, 1:500, in-house (Fiesel et al., EMBO Reports (2015) 16:1114-30; Fiesel et al., (2015) Autophagy 11:2125-2126)), TAX1BP1 (rabbit, 1:200, Cell Signaling, #5105), TOM20 (mouse, 1:100, Santa Cruz, sc-17764), TOM20 (rabbit, 1:2000, Proteintech, 11802-1-AP). Secondary antibodies conjugated to AlexaFluor-568 or-647 (Invitrogen) were diluted 1:1000. Hoechst 33342 (Invitrogen) was diluted 1:5000 to counterstain the nuclei.
To validate the activation of Parkin further downstream in the pathway, co-recruitment of endogenous autophagy receptors to mitochondria in HeLa EGFP-Parkin cells was analyzed. These dual adaptors recognize pSer65-Ub chains on damaged mitochondria and facilitate their engulfment by autophagosomal membrane via their interaction with LC3 proteins (Lazarou et al., Nature (2015) 524:309-14; Heo et al., Mol. Cell (2015) 60:7-20).

Parkin = Parkin (Homo sapiens (Human), UniProt O60260); test: Parkin activation in human primary fibroblasts (western blot); format: cell-based; conditions: for MFN1/2 degradation and pSer65-Ub levels: 5 μM before low dose CCCP (3.5 μM); for MFN1 ubiquitylation or pSer65-Ub signals, compound treatment alone: different concentrations, 2 h, absence of CCCP
Procedure: FIGS. 15A-15H show Parkin activation in primary fibroblasts, neuronal cells and in vitro. Positive control (PC) cells were treated with DMSO and 10 μM of CCCP. Negative control (NC) cells were treated with 3.5 μM CCCP, some cells were left untreated (−). […] Vinculin was used as loading control. […] FIG. 15C: Human fibroblasts were directly converted to neurons and treated as in FIG. 15B. […] Beta III tubulin confirmed successful conversion of fibroblasts to iNeurons. FIG. 15D: Rat PC12 cells were treated as in FIG. 15A. Western blots show enhanced ubiquitylation of MFN2 and TOM70, and robust pSer65-Ub induction similar to PC, but not NC cells. FIG. 15E: In vitro E2 discharge assay. Recombinant Parkin was pre-incubated with compound 4 or DMSO as control and was mixed to Ub-loaded UbcH7. […] Control reactions were performed without PINK1 or Parkin. FIG. 15F: In vitro assay with isolated mitochondria from untreated or CCCP-treated HeLa cells lacking Parkin. Mitochondrial preparations were mixed with recombinant Parkin, E1, UbcH7, ATP and either compound 4 or DMSO as a control and incubated for the indicated times. […] Control samples were incubated in reaction mix without Parkin. FIG. 15G: Protein melting was performed with 50 ng purified Parkin mixed with SYPRO orange and DMSO as control or 500 nM compound 4. […] FIG. 15H: Statistical analysis of three independent experiments as performed in FIG. 15G. Shown in the average value+/−SD (unpaired, two-sided t-test; *** p<0.0005).
FIG. 16A: Quantification of pSer65-Ub signal using sandwich ELISA from six independent experiments performed in human fibroblast treated as described in FIG. 15A. Shown in the average−/+SD. One-way ANOVA with Tukey's posthoc test (*** p<0.0005). FIG. 16B: Human primary fibroblasts were treated with different concentrations of all five compounds (1, 2, 3, 4, and 31) for 2 h. […] Different CCCP concentrations were used as positive control. FIG. 16C: Rat PC12 cells were pretreated with 5 μM of the compounds for 2 h and then treated with low dose of CCCP (3.5 μM). Control cells were treated with DMSO and either 10 μM CCCP (PC) or 3.5 μM (NC). Some cells received no CCCP (−). […] The PINK1/Parkin product pSer65-Ub was induced by all five compounds upon low dose treatment and in positive controls. FIG. 16D: PC12 cells were differentiated by treatment with NGF (NGF+). Some cells were left undifferentiated (NGF−). Cells were treated with 5 μM of compounds or DMSO as indicated. 2 h later, low dose CCCP (3.5 μM) was added to cells treated with test compounds. DMSO controls were either treated with 3.5 μM CCCP (NC) or 10 μM CCCP (PC). Some cells were not treated with CCCP (−). Western blots probed with antibodies against MFN1 show degradation in cells treated with compounds and in the positive control. Some degradation can also be observed in the negative control. […] Beta III tubulin was used to confirm successful differentiation. Vinculin was used as loading control.
Primary fibroblasts (Cell Applications) were cultured in fibroblast growth medium (FGM): DMEM containing 10% FBS, 1% penicillin-streptomycin and 1% non-essential amino acids. Direct conversion to neurons was performed utilizing short hairpin RNA targeting polypyrimidine-tract-binding protein (shPTB), which affects proneuronal micro-RNA circuits (Xue et al., Cell (2013) 152:82-96. Cells were seeded with 40,000 cells/mL and allowed to adhere overnight. 48 h after transduction with pLKO. 1_shPTB lentivirus, positive cells were selected with 2 μg/mL puromycin in fibroblast growth medium. On day 6 media was changed to FGM containing 10 ng/mL fibroblast growth factor (FGF, Genscript). On day 8, media was changed to differentiation media (DMEM:F12 (Invitrogen), 25 μg/mL insulin, 50 μg/mL transferrin, 0.1 μM putrescine 0.03 μM Na-selenite (all Sigma-Aldrich), and 15 ng/mL FGF) containing 5% FBS. On days 10 and 12 media was replaced with differentiation media containing reduced serum (2% FBS). […]

Chain of Parkin (O60260 whole entry): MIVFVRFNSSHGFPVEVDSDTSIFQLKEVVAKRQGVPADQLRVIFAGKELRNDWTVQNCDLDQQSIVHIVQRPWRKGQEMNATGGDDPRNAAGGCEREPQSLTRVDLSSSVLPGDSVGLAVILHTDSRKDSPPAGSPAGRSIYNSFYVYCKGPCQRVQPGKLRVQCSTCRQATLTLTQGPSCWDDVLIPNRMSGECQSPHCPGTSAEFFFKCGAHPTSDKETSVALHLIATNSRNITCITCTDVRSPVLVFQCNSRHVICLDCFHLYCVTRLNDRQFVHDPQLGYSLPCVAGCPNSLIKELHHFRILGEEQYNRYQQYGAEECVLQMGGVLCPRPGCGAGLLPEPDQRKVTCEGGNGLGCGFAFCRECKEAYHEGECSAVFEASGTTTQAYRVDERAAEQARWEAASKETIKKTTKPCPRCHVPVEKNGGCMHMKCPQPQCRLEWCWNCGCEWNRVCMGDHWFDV

| SMILES | co-localization of OPTN, NBR1, NDP52, p62 and TAX1BP1 with Parkin on damaged mitochondria (HeLa EGFP-Parkin cells) | MFN1/2 degradation and pSer65-Ub levels (Parkin) | MFN1 ubiquitylation or pSer65-Ub signals, compound treatment alone (Parkin) | mitofusin ubiquitylation/degradation and pSer65-Ub signal (Parkin; 5 μM for 2 h before different concentrations of CCCP) |
| --- | --- | --- | --- | --- |
| Cc1nc2c(c(N3CCCN(Cc4ccccc4)CC3)n1)CCCC2 [Compound 31] | increased co-localization | enhanced degradation of the substrates MFN1/2 and increase of pSer65-Ub levels | did not induce MFN1 ubiquitylation or pSer65-Ub signals |  |
| CC(C)(C)Sc1ccc(NC(=O)Cn2ccnc2)cc1 [Compound 3] | increased co-localization | enhanced degradation of the substrates MFN1/2 and increase of pSer65-Ub levels | did not induce MFN1 ubiquitylation or pSer65-Ub signals |  |
| O=C(Cn1cnc2c1CCCC2)Nc1ccc(-c2ccccc2)cc1 [Compound 1] | increased co-localization | enhanced degradation of the substrates MFN1/2 and increase of pSer65-Ub levels; also recorded: strongest effects | did not induce MFN1 ubiquitylation or pSer65-Ub signals |  |
| O=C(Cn1ccnc1-c1ccccn1)Nc1ccc(-c2ccccc2)cc1 [Compound 4] | increased co-localization | enhanced degradation of the substrates MFN1/2 and increase of pSer65-Ub levels; also recorded: strongest effects | did not induce MFN1 ubiquitylation or pSer65-Ub signals | increased ubiquitylation/degradation of mitofusins and amplification of the pSer65-Ub signal |
| CC(C)c1nccn1CC(=O)Nc1ccc(-c2ccccc2)cc1 [Compound 2] | increased co-localization | enhanced degradation of the substrates MFN1/2 and increase of pSer65-Ub levels | did not induce MFN1 ubiquitylation or pSer65-Ub signals |  |
